Consider 15 compounds from ChEMBL document CHEMBL1131212, “Synthesis and adrenergic activity of a new series of N-aryl dicyclopropyl ketone oxime ethers: SAR and stereochemical aspects” (J Med Chem, 1998).

Experiment [1] relates to Rattus norvegicus. The experiment can be described thus: Tested for MED (smallest dose giving maximum effect) evaluated by dose-response curve, from 0.1 to 5 mg/kg in 5-10 animals on iv administration. The class given is functional. To be noted: dose mg/kg 0.1-5.
The target of experiment [2] is T1, Adrenergic receptor beta (Rattus norvegicus, UniProt P18090+P10608+P26255). Kind of experiment: Inhibition of beta adrenergic receptor isolated from rat ventricle homogenates.
The target in experiment [3] is T2, Adrenergic receptor alpha-1 (Rattus norvegicus, UniProt P15823+P23944+P43140).
T2 sequence (P15823 whole entry): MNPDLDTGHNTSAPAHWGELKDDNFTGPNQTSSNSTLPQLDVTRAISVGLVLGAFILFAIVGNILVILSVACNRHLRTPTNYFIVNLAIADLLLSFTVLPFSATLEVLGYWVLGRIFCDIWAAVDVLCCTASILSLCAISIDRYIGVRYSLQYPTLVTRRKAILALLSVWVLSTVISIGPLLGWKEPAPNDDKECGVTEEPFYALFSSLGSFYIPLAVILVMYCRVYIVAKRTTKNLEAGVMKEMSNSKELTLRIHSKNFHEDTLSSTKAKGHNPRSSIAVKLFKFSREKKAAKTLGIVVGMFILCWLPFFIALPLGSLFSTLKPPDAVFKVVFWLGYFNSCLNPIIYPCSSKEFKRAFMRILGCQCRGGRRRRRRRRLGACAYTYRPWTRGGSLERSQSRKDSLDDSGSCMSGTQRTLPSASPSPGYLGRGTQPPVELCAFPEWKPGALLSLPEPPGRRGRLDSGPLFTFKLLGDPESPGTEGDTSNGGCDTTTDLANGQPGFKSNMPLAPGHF
T2 sequence (P23944 whole entry): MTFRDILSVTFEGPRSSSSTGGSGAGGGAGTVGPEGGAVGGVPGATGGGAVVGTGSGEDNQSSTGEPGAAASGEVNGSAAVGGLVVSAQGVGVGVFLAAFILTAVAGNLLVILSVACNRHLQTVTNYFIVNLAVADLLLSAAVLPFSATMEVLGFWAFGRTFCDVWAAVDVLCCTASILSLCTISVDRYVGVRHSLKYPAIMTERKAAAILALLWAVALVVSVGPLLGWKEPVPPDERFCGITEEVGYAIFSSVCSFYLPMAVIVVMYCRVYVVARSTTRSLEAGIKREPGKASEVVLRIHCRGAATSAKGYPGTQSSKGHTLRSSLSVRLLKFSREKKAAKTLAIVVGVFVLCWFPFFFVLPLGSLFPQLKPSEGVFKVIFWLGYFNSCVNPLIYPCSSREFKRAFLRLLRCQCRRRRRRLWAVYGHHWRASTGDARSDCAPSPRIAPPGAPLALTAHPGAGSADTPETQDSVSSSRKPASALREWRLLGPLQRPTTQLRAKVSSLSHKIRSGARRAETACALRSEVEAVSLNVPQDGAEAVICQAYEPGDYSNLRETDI
T2 sequence (P43140 whole entry): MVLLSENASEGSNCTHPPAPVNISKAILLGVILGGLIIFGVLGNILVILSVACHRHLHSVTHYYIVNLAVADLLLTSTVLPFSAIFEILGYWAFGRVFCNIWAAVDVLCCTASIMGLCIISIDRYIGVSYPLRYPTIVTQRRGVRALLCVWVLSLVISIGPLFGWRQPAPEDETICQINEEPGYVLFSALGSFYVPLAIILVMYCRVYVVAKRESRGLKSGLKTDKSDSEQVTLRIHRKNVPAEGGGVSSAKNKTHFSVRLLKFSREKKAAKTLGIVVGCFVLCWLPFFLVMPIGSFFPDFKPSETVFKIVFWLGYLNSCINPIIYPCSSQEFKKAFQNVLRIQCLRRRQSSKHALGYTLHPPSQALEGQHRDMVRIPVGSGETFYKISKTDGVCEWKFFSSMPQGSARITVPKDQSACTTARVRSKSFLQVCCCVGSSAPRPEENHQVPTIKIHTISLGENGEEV
Kind of experiment: Inhibition of alpha-1 adrenergic receptor isolated from rat ventricle homogenates.

Experiment [4] is filed under the species Rattus norvegicus. Kind of experiment: The compound was tested for percent increase in heart rate with respect to that measured after isoprenaline in 5-10 animals and showing significant increase (p <= 0.05) with respect to baseline values (293 +/- 7 to 310 +/- 5 […]). The class given is functional.
For experiment [5], the species on record is Cavia porcellus. The experiment can be described thus: Ionotropic effect in electrically driven left atrial preparation (Atria isolated from guinea pig) and is expressed in pA2. The conditions noted are these: Cardiac atrium, read-out: pA2 (converted).
The species entered for experiment [6] is Cavia porcellus. The experiment can be described thus: Chronotropic effect studied in right atria isolated from guinea pig and is expressed in pA2. To be noted: read-out: pA2 (converted).
Experiment [7] has as its target T3, Adrenergic receptor beta (Rattus norvegicus) (UniProt P18090+P10608+P26255).
The target of experiment [8] is T3, Adrenergic receptor beta (Rattus norvegicus). The experiment can be described thus: In vitro inhibitory specificity for Beta adrenergic receptor was evaluated; ND=not determined. The class given is protein assay.
The species named for experiment [9] is Rattus norvegicus. Kind of experiment: The compound was tested for percent increase in heart rate with respect to that measured after isoprenaline in 5-10 animals. The class given is functional.
For experiment [10], the target named is T1, Adrenergic receptor beta. The experiment can be described thus: The compound was tested for the concentration to inhibit 50% of Beta adrenergic receptor isolated from rat ventricle homogenates; ND=not determined.
The target of experiment [11] is Beta-1 adrenergic receptor (Cavia porcellus). The experiment can be described thus: Beta-1 adrenergic receptor-Antagonism in isolated guinea pig atria. ( for R-enantiomer). The conditions noted are these: read-out: pA2 app (converted).
Experiment [12] addresses T1, Adrenergic receptor beta. The experiment can be described thus: The compound was tested for the concentration to inhibit 50% of Beta adrenergic receptor isolated from rat ventricle homogenates. The class given is functional.

SMILES strings stand for the structures. Where only a bound is given, the exact number is not on record here.

One may read the IC50 as the concentration that gives 50% inhibition. Low readings indicate higher potency, high ones lower potency.

`Cc1cccc(NCC(O)CON=C(C2CC2)C2CC2)c1` (configuration not stated) came in with an MED in [1] of 9.2 µmol/kg. The IC50 in experiment [2] is 0.501 µM; in experiment [3], > 100 µM. For the same compound, in experiment [4], the Increase is given as 42%. The values for the Kb in experiment [5] and in [6] were 0.126 µM and 0.1 µM, respectively. Further, the Specificity in experiment [7] was > 200.
For `Oc1ccc(NCC(O)CON=C(C2CC2)C2CC2)cc1` (configuration not stated), in experiment [8], the Specificity was 2730. The same compound showed an MED in [1] of 3.1 µmol/kg. Moreover, the concentration for half-maximal inhibition (IC50) is 28.3 µM in [3] and 0.0104 µM in experiment [10]. The Kb was 0.2 µM in [5] and 0.0794 µM in [6]. This compound showed an Increase in [9] of 10%.
In turn, `Cc1ccccc1NCC(O)CON=C(C1CC1)C1CC1` (configuration not stated) registered an MED in experiment [1] of 5.3 µmol/kg. Further, the IC50 stood at 0.013 µM in experiment [2] and 22 µM in experiment [3]. For the same compound, the Increase in experiment [4] amounted to 37%. For the same compound, the Kb in experiment [5] is 0.251 µM; in experiment [6], 0.126 µM. The compound further showed a Specificity in experiment [7] of 1690.
Consider `OC(CNc1ccc(C(F)(F)F)cc1)CON=C(C1CC1)C1CC1` (configuration not stated), for which the MED in experiment [1] was determined as 2.2 µmol/kg. Further, the 50% inhibitory concentration (IC50) was 0.0138 µM in [2] and > 100 µM in [3]. Besides, the Increase in experiment [4] worked out at 47%. Also, the Kb was 0.126 µM in [5] and 0.0631 µM in experiment [6]. The Specificity in experiment [7] is > 7250.
In experiment [1], `OC(CNc1cccc(I)c1)CON=C(C1CC1)C1CC1` (configuration not stated) yielded an MED of 7.8 µmol/kg. Besides, the IC50 is 0.63 µM in experiment [2] and > 100 µM in experiment [3]. In [4], this compound displayed an Increase of 42%. The Kb was 3.16 µM in [5] and 5.01 µM in experiment [6]. In experiment [7], the Specificity is > 160.
Turning to `OC(CNc1ccc(-c2ccccc2)cc1)CON=C(C1CC1)C1CC1` (configuration not stated), the MED in [1] was found to be 1 µmol/kg. The half-inhibitory concentration (IC50) in experiment [2] came out at 0.0045 µM; in experiment [3], 3.1 µM. Besides, in [4], the Increase was 70%. The Kb in [5] was 0.0398 µM; in experiment [6], 0.01 µM. The Specificity in [7] stood at 690.
As for `CC(C)(C)c1ccc(NCC(O)CON=C(C2CC2)C2CC2)cc1` (configuration not stated), the results for the Kb in [11], in experiment [5] and in experiment [6] were 0.011 µM, 0.0501 µM and 0.0126 µM, respectively. In experiment [1], the MED turned out to be 2 µmol/kg. Also, the figures for the IC50 in [2] and in [3] were 0.0034 µM and 70.8 µM, respectively. This compound had an Increase in experiment [4] of 44%. The same compound gave a Specificity in experiment [7] of 20800.
In [1], `O=C(O)c1ccc(NCC(O)CON=C(C2CC2)C2CC2)cc1` (configuration not stated) gave an MED of 2.3 µmol/kg. Also, the IC50 in [2] is 0.01 µM; in experiment [3] it was 37.3 µM. The compound also showed an Increase in experiment [4] of 65%. Besides, the values for the Kb in experiment [5] and in experiment [6] were 0.631 µM and 0.1 µM, respectively. In addition, in experiment [7], the Specificity came to 3570.
In experiment [1], `OC(CNc1ccc(Br)cc1)CON=C(C1CC1)C1CC1` (configuration not stated) had an MED of 2.1 µmol/kg. Also, the figures for the IC50 in experiment [2] and in [3] were 0.0041 µM and 19 µM, respectively. In addition, the Kb in [5] was 0.1 µM; in experiment [6], 0.02 µM. The compound further gave an Increase in [9] of 10%. This compound also gave a Specificity in experiment [7] of 4630.
In experiment [1], `OC(CNc1ccc(Cl)cc1)CON=C(C1CC1)C1CC1` (configuration not stated) had an MED of 2.1 µmol/kg. Besides, the 50% inhibitory concentration (IC50) in [2] was found to be 0.0114 µM; in experiment [3], 18.7 µM. Further, in [4], the Increase is given as 47%. Moreover, the Kb in experiment [5] was 0.126 µM; in experiment [6], 0.0398 µM. In experiment [7], this compound had a Specificity of 1640.
On to `CC(C)(Cc1ccc(NCC(O)CON=C(C2CC2)C2CC2)cc1)[N+](=O)[O-]` (configuration not stated), for which the IC50 in experiment [12] worked out at 0.0034 µM; in experiment [3], 12.6 µM. Further, the MED in experiment [1] is 2.4 µmol/kg. For the same compound, the Kb in experiment [5] is 0.0794 µM; in [6], 0.02 µM. In [9], the Increase was 10%. In [7], this compound came in with a Specificity of 3700.
With `OC(CNc1ccccc1)CON=C(C1CC1)C1CC1` (configuration not stated), in experiment [1], the MED worked out at 2.7 µmol/kg. Further, the 50% inhibitory concentration (IC50) in [2] was determined as 0.0033 µM; in [3] it was 13 µM. For the same compound, the Kb in experiment [5] is 0.126 µM; in [6], 0.0398 µM. The compound also displayed an Increase in [9] of 10%. In addition, in [7], the Specificity was found to be 3940.
In turn, `OC(CNc1ccc(I)cc1)CON=C(C1CC1)C1CC1` (configuration not stated) yielded an MED in experiment [1] of 1.6 µmol/kg. The half-maximal inhibitory concentration (IC50) in experiment [2] came to 0.0041 µM; in [3], 27.5 µM. In experiment [4], this compound gave an Increase of 64%. The Kb was 0.0631 µM in experiment [5] and 0.0158 µM in experiment [6]. This compound had a Specificity in experiment [7] of 6700.
With `Cc1ccc(NCC(O)CON=C(C2CC2)C2CC2)cc1` (configuration not stated), the Kb in experiment [11] is 0.0126 µM; in experiment [5], 0.01 µM; in [6], 0.0126 µM. In addition, the MED in experiment [1] was 2.5 µmol/kg. For the same compound, the IC50 in experiment [2] is 0.0076 µM; in experiment [3] it was 15 µM. This compound also yielded an Increase in [4] of 64%. Further, the Specificity in [7] was found to be 1970.
The compound `OC(CNc1ccc(F)cc1)CON=C(C1CC1)C1CC1` (configuration not stated) showed an MED in [1] of 2.4 µmol/kg. In addition, the figures for the 50% inhibitory concentration (IC50) in [2] and in experiment [3] were 0.0124 µM and 26.2 µM, respectively. This compound registered an Increase in experiment [4] of 74%. In addition, the results for the Kb in [5] and in experiment [6] were 1.26 µM and 0.631 µM, respectively. Further, the Specificity in [7] came out at 2120.
